Here are results for 19 compounds from US9205085B2, “Tricyclic amino containing compounds for treatment or prevention of symptoms associated with endocrine dysfunction” (Emory University, priority 2011, dated 2015).

“And” between values parts separate entries of the source, which are not always exact repeats. Identical values can stand only once.

For data set [1], the target named is T1, SDF-1/CXCR4 (Homo sapiens (Human), UniProt P61073). The data set is described as follows: IC50 vs SDF-1 (table of specific compounds). It counts as binding.
T1 sequence (P61073 whole entry): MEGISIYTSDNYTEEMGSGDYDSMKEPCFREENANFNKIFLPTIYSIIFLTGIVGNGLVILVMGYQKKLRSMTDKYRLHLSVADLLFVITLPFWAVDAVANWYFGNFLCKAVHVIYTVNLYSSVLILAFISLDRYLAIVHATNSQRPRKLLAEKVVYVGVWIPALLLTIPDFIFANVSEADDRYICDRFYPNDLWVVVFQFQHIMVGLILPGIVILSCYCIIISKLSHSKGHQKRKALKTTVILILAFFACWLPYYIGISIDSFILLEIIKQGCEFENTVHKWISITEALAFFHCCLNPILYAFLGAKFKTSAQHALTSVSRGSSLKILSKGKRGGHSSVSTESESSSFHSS
Data set [2] is described as follows: 5-day repeat dose study in cynomolgus monkeys. It is filed as in vivo. Here is the method:
(§1) In initial studies, three groups of rats (5 males and 5 females per group) were dosed with 0, 250 and 600 mg/kg of MSX-122 orally once per day for 28 days. […] A 5-day repeat dose study was carried out in two non-naïve cynomolgus monkeys (1 male and 1 female) and two naïve cynomolgus monkeys (1 male and 1 female) dosed with 1,000 and 2,000 mg/kg, respectively, orally once per day for 5 days.

Data set [3] can be described thus: Pharmacokinetic/pharmacodynamic study in cynomolgus monkeys. It counts as in vivo. From the text: (§2) Oral bioavailability and sustained plasma exposure was consistently observed in multiple species for certain compounds.
Data set [4] is described as follows: 28-day oral toxicology study in rats. It counts as in vivo. Particulars: 250 and 600 mg/kg orally once per day for 28 days. The method, then: as §1
The nature of data set [5]: Pharmacokinetic study in rats. Particulars: 10 mg/kg. It counts as in vivo.
From the text: as §2

The next data set deals with hERG channel (IKr) (Homo sapiens (Human), UniProt Q12809). The data set is described as follows: hERG channel current (IKr) inhibition. To be noted: human; 1 μM; read-out: inhibition of hERG channel currents. It counts as biochemical. The method, then: (§3) Sufficiently scorable cells in the presence of S9 were available for 4 hour treatment and in the absence of S9 for a 20 hour treatment. Finally, MSX-122 was tested for its potential to interfere with the rapid delayed rectifier current (IKr) in human ventricles through the cardiac potassium channel, hERG since inhibition of IKr has been reported to be the most common cause of cardiac action potential prolongation by non-cardiac drugs.
Sequence of hERG channel (IKr) (Q12809 whole entry): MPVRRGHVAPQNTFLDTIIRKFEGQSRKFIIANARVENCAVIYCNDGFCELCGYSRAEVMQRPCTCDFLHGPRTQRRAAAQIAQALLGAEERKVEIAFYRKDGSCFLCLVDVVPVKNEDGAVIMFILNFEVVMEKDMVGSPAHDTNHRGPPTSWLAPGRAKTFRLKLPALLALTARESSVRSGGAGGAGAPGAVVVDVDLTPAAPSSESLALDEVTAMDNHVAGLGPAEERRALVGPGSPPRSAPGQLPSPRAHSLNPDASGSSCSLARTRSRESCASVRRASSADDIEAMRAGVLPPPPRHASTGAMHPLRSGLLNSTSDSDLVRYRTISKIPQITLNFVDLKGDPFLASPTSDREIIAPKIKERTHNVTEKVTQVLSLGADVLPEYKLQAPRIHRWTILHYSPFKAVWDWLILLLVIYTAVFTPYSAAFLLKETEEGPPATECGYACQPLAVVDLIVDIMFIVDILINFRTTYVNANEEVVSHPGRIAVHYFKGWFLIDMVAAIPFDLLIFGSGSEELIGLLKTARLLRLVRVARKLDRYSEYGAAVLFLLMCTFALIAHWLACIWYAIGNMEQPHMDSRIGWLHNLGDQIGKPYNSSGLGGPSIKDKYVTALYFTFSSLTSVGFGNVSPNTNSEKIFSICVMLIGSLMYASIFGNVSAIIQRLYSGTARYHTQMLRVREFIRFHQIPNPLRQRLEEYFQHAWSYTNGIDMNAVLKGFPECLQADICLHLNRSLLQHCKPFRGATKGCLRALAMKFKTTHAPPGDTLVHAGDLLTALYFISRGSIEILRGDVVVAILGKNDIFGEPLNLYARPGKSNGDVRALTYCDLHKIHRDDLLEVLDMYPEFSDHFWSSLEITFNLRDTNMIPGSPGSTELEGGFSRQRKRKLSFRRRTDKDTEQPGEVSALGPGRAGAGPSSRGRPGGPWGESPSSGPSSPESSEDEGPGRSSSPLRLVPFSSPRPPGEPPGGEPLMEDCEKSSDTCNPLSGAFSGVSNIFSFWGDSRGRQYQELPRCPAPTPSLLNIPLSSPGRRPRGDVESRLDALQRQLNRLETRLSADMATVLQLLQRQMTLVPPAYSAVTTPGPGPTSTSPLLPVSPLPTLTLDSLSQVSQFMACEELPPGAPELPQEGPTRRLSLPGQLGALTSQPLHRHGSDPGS

For another data set, the target named is hERG channel (Homo sapiens (Human), UniProt Q12809). Kind of data set: hERG channel current (IKr) inhibition. It counts as biochemical. The method, then: as §3
Sequence of hERG channel (Q12809 whole entry): as above
Another data set in a line: In vitro Ames test. It counts as cell-based.
In data set [6] the target is T1, SDF-1/CXCR4. The data set is described as follows: cAMP assay (SDF-1/CXCR4-mediated cAMP reduction). It is filed as cell-based. To be noted: for concentration effective in counteracting/blocking SDF-1 function: cAMP reduction by SDF-1; for effect of SDF-1 on cAMP reduction: pre-treatment with compound, SDF-1 EC80 150 ng/ml. The method, then: Because the major signaling pathway of CXCR4/SDF-1 involves the pertussis toxin-sensitive G protein Gi, compounds described herein were tested as to whether they inhibited SDF-1/CXCR4-mediated cAMP reduction. The absorption increase at 665 nm was determined by varying the concentration of SDF-1 (0-200 ng/ml) to determine EC80 to be 150 ng/ml.

Data set [7] concerns the target SDF-1 binding domain of CXCR4 (Homo sapiens (Human), UniProt P61073). Kind of data set: Competitive binding assay against biotin-labeled TN14003. To be noted: competition with biotin-labeled TN14003; read-out: Effective concentrations (EC50). An excerpt: Aa competitive binding assay using biotin-labeled TN14003 and streptavidin-conjugated rhodamine was developed to determine the binding efficiency of new chemical entities to the SDF-1 binding domain of CXCR4.

Data set [8] in a line: Initial pharmacokinetic study in mice. It counts as in vivo. Particulars: intraperitoneally (IP) and orally.
From the text: as §2

The subject of a further data set is hot flashes. Kind of data set: Treatment of hot flashes in a patient. To be noted: person, 50 mg/day oral, after third treatment. It is filed as in vivo, human. Here is the method: An approximately 70 kg person with a history of aggressive high grade serous carcinomy in their right fallopian tube, a complete hysterectomy and bilateral oophorectomy after previous treatments with VEGF-Trap and docetaxel, Carboplatin and taxol and doxil was treated with MSX-122, 50 mg/day oral.

The subject of the next data set is CHO cells. The data set is described as follows: In vitro chromosome aberration screening test. It is filed as cell-based. To be noted: any dose level up to 2 mM, 4 hour with S9, 20 hour without S9. Here is the method: as §3
[9] abbreviates: cynomolgus monkeys, 1,000 and 2,000 mg/kg orally once per day for 5 days.
[10] abbreviates: cynomolgus monkeys, oral 5 and 10 mg/kg.

Sequence of SDF-1 binding domain of CXCR4 (P61073 whole entry, the tested form may be a part): as the sequence (P61073 whole entry) above

For `c1ccc(NCc2ccc(CNc3ccccc3)cc2)cc1` [WZ13], the melting point lay in the range of 126 to 127 °C.

Regarding `c1cncc(NCc2ccc(CNc3cccnc3)cc2)c1` [MSX-163], the half-inhibitory concentration (IC50) on SDF-1/CXCR4 [1] came to 10 nM.

Regarding `Clc1nc(Cl)nc(NCc2ccc(CNc3nc(Cl)nc(Cl)n3)cc2)n1` [MSX-190], half-maximal inhibition against SDF-1/CXCR4 [1] (IC50) required 10 nM.

Turning to `Cc1c(C)c(CNc2ccccc2)c(C)c(C)c1CNc1ccccc1` [MSX-172], on SDF-1/CXCR4 [1], 10 nM corresponded to half-maximal inhibition (IC50).

For the compound `COCc1ccc(CNc2ncccn2)cc1` [MSX-208], half-maximal inhibition against SDF-1/CXCR4 [1] (IC50) was put at 100 nM.

The compound `c1ccc(OCc2ccc(CNc3ncccn3)cc2)cc1` [MSX-209] showed a 50% inhibitory concentration (IC50) against SDF-1/CXCR4 [1] of 10 nM.

In turn, `Cc1ccc(NCc2ccc(CNc3ccc(C)cc3)cc2)cc1` [MSX-139] displayed an IC50 at SDF-1/CXCR4 [1] of 10 nM.

The compound `O=C(O)c1cccc(NCc2ccc(CNc3cccc(C(=O)O)c3)cc2)c1` [MSX-214] registered a half-inhibitory concentration (IC50) at SDF-1/CXCR4 [1] of 100 nM. This IC50 lies about 10-fold higher than the previous one.

Compound `c1ccc(NCCNCc2ccc(CNCCNc3ccccc3)cc2)cc1` [WZ8] registered a melting point of 42 to 43 °C.

At SDF-1/CXCR4 [1], `Clc1ccc(NCc2ccc(CNc3ncccn3)cc2)nc1` [MSX-219] gave an IC50 of 10 nM. This lies in the double-digit nanomolar range.

In the case of `c1cnc(NCc2ccc(CNc3ncccn3)cc2)nc1` [MSX-122, N-(4-((pyrimidin-2-ylamino)methyl)benzyl)-pyrimidin-2-amine], the highest concentration (Cmax) in [2] (both sexes, cynomolgus monkey, in vivo, po, cynomolgus monkeys, 1,000 and 2,000 mg/kg orally once per day for 5 days) is 5.1 µM to 12 µM and 1500 ng/mL to 3500 ng/mL. Moreover, the gross necropsy entry in [2] (cynomolgus monkeys dosed at 2000 mg/kg) is “no abnormalities or signs of toxicity”. Besides, in [2] (setting [9]), the blood serum chemistry result is on record as “no abnormalities”, the “plasma concentrations maintained throughout the study” value is given as “micromolar” and the “signs or symptoms of toxicity” value is given as “No drug-related signs or symptoms of toxicity”. In addition, the “clinical observations (stool)” value in data set [2] (cynomolgus monkeys, 1,000 and 2,000 mg/kg, may have been caused by excipients) is “loose and watery stool in a subset of the animals”. In data set [3] (setting [10]), the half lives result is reported as “support once per day dosing” and the plasma concentrations result is given as “micromolar”. Moreover, the “pharmacokinetics / dose proportionality of plasma levels” value in [3] (female cynomolgus monkeys, oral 1, 5 and 10 mg/kg) is reported as “sustained pharmacokinetics with plasma levels that were relatively dose proportional”. Also, in [4], the “signs or symptoms of toxicity during the study” value is recorded as “No signs or symptoms of toxicity” and the “toxicity upon termination from blood serum chemistry or gross necropsy” value is on record as “no toxicity was observed”. Moreover, the “plasma concentrations maintained throughout the study” value in data set [4] (after day 1) is on record as “micromolar”. The highest concentration (Cmax) in data set [4] (both sexes, rat, in vivo, po) is 2000 ng/mL to 4000 ng/mL and 6.8 µM to 13.6 µM. For the same compound, the plasma levels entry in data set [5] (for 10 hours) is “above 100 ng/ml and > 342 nM”. In addition, the Tmax in data set [5] (rat, plasma, oral, read-out: initial Tmax (converted)) is around 30 min. Besides, the inhibition at 1 µM at hERG channel (IKr) was 0.2%. For the same compound, the “inhibitory effect on hERG channel currents” value at hERG channel is recorded as “do not exert a significant inhibitory effect”. Moreover, the mutagenicity result in “In vitro Ames test” was “no evidence of mutagenicity”. Besides, at SDF-1/CXCR4 [6], the “concentration effective in counteracting/blocking SDF-1 function” value stood at 10 nM and the “effect of SDF-1 on cAMP reduction” value is recorded as “blocked significantly in a dose-dependent manner”. Also, the EC50 in data set [7] was found to be 0.6 nM. For the same compound, in data set [8], the blood levels entry is recorded as “sustained blood levels”. Further, the hot flashes entry with hot flashes is reported as “resolved greatly”. Besides, the “structural or numerical chromosome aberrations” value in the data set on CHO cells is reported as “no statistically significant increase in structural or numerical chromosome aberrations”.

Consider `O=C(Nc1ccccc1)c1cc(C(=O)Nc2ccccc2)cc(C(=O)Nc2ccccc2)c1` [WZ20], for which the melting point fell in the range of 318 to 320 °C.

Turning to `COc1ccccc1NCc1ccc(CNc2ccccc2OC)cc1` [MSX-206], on SDF-1/CXCR4 [1], the midpoint of inhibition, the IC50, lay at 10 nM.

For the compound `c1ccc(OCc2ccc(CNc3ncccn3)cc2)nc1` [MSX-212], the half-inhibitory concentration (IC50) on SDF-1/CXCR4 [1] turned out to be 100 nM. This IC50 is about 10-fold higher than that of the compound before.

As for `c1ccc(SCc2ccc(CSc3ccccc3)cc2)cc1` [MSX-211], the half-maximal inhibitory concentration (IC50) against SDF-1/CXCR4 [1] was found to be 1000 nM.

`c1ccc(NCCc2ccc(CCNc3ccccc3)cc2)cc1` [MSX-170] gave an IC50 on SDF-1/CXCR4 [1] below 100 nM.

The compound `c1ccc(NCc2ccc(CNc3ccccc3)c3ccccc23)cc1` [MSX-175] had an IC50 against SDF-1/CXCR4 [1] above 100 nM.

Consider `c1cc(CN2CCCNCCNCCCNCC2)ccc1CN1CCCNCCNCCCNCC1` [AMD-3100, reference compound], for which, at SDF-1/CXCR4 [6], the “concentration effective in counteracting/blocking SDF-1 function” value is listed as around 1000 nM and the “effect of SDF-1 on cAMP reduction” value is on record as “blocked significantly in a dose-dependent manner”.

`N=C(N)NCc1ccc(CNC(=N)N)cc1` [WZ5S]: the melting point was 278 to 281 °C (dec.).
